Results from patent publication US10927107B2, “Phenyl [a]indole[2,3-g]quinolizine compounds, preparation method therefor, pharmaceutical composition, and applications thereof” (Shanghai Institute of Materia Medica, Chinese Academy of …, priority 2016, dated 2021).
Where two headings read alike, the source gives them in different places. Values belong to the compound of their own block, whether it stands above or below them.

Experiments:
HepG2 cells = experiment: In vitro lipid-lowering activity: DiI-LDL uptake in HepG2 cells; assay type: cell-based; conditions: Homo sapiens, test compound 5 uM, 24 h, DiI-LDL 20 ug/ml, 3 h, FLU of sample group/FLU of blank group x100%, read-out: LDL uptake rate
Procedure: HepG2 cells were inoculated in 24-well plates, cultured in DMEM containing 10% FBS for 24 h or 48 h, and then transferred to DMEM containing 2% defatted serum and cultivated for 24 h. The old culture solution was discarded and replaced with new 2% defatted serum DMEM, and a test compound (the working concentration of which is 5 uM, triplicate for each sample) was added and incubated for 24 h. The old culture solution was abandoned and DMEM containing DiI-LDL (20 ug/ml) was added (300 ul/per 24 wells), incubated for 3 h. DMEM containing DiI-LDL was discarded, and cells were rinsed twice with PBS containing 0.4% BSA, and 3 times with PBS to remove excess DiI-LDL. Isopropanol was added (500 ul/per well of a 24-well plate), and was kept in darkness. After shaken for 20 minutes, 200 ul of supernatant was sucked to a black fluorescent plate, and fluorescence intensity (FLU) was detected at excitation light 520 nm and emission light 578 nm. The experimental results were calculated: LDL uptake rate=(FLU value of sample group to be tested/FLU value of blank group)×100%.

[1] = biological target: T1, α1A-adrenergic receptor (α1A-AR) (Homo sapiens, UniProt P35348); experiment: Antagonistic activity on α1A-AR: calcium fluorescence in HEK293 cells stimulated with phenylephrine; assay type: cell-based
T1 construct: expressed in transfected cells; host or cells: HEK293
T1 sequence (P35348 1-466): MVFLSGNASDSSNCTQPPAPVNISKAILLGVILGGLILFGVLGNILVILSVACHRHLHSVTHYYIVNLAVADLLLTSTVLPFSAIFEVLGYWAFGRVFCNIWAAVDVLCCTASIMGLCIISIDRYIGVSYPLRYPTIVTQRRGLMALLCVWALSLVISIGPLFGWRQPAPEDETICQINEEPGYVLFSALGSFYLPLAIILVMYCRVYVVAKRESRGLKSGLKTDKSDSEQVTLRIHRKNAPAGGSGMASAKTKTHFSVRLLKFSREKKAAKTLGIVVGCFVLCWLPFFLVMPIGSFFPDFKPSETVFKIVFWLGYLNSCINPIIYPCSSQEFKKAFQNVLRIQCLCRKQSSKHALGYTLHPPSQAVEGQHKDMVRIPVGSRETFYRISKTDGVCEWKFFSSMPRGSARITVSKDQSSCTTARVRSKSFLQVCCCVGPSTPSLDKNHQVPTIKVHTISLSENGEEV
Procedure: HEK293 cells stably expressing α1A-adrenergic receptor (α1A-AR) and G protein […] were seeded in 96-well plates. After 24 hours of culture, the medium was removed, and 40 μL of Hank's balanced salt solution (HBSS: containing 5.4 mM KCl, 0.3 mM Na2HPO4, 0.4 mM KH2PO4, 4.2 mM NaHCO3, 1.3 mM CaCl2, 0.5 mM MgCl2, 0.6 mM MgSO4, 137 mM NaCl, 5.6 mM D-glucose and 250 μM sulfinpyridone, pH 7.4) containing 2 μM of MFluo-4AM was added to each well, and incubated for 45 minutes in an incubator. The dye was aspirated and 50 μL of HBSS containing a test compound or 1% DMSO (negative control) was added and incubated for 10 minutes at room temperature, and then read with Flex Station 3 microplate reader. At the specified time point, 25 μL of agonist phenylephrine (final concentration 30 nM) will be automatically added by the detector into the reaction system, and simultaneously stimulated with 485 nm light, and the change in intensity of fluorescence caused by the change in the intracellular calcium ion concentration was detected at 525 nm. […] The response rate of different doses of the same drug was analyzed by GraphPad Prism software to obtain a dose-response curve and the IC50 value was measured. Each experiment was performed in […].

[2] = system: Syrian golden hamsters (high-fat diet, hyperlipidemia model); experiment: In vivo lipid-lowering activity in high-fat diet golden hamsters; parameters: species or system Syrian golden hamster; conditions: for CHOL / HDL-C / LDL-C / TG: high-fat diet, serum; for contents of cholesterol (CHOL), triglyceride (TG) and low density lipoprotein (LDL-C) in the blood: hyperlipidemia model
Procedure: After adaptively feeding Syrian golden hamsters (male, 80-100 g) for a week, all hamsters were fed with high-fat diet. Two weeks later, blood was collected from the orbital venous plexus, serum was separated, and levels of total cholesterol (TC), triglyceride (TG), high-density lipoprotein (HDL-C) and low-density lipoprotein (LDL-C) in serum were measured. They were evenly grouped according to blood lipid levels into […]: model control group, A1 intragastric administration group, A1 intraperitoneal administration group, A5 intragastric administration group, A5 intraperitoneal administration group, A55 intragastric administration group, A55 intraperitoneal administration group, B5 intragastric administration group, B5 intraperitoneal administration group, and the animals in each group were continued to be administered with high fat diet. […] […] Blood lipid levels and body weights were measured every 10 days. After three weeks, the animals were sacrificed and the liver was stored in a −80° C. refrigerator.

Rat pharmacokinetics [3] = assay type: in vivo; parameters: AUC(0-t) / AUC(0-inf): concentration or dose not given beside the values; conditions: for AUC(0-inf): read-out: AUCINF—obs; for MRT inf: read-out: MRTINF—obs
Procedure: (§1) A1 10 μL of a plasma sample was taken in a centrifuge tube and 100 μL of methanol:acetonitrile (1:1, v/v) was added, vortexed for 1 min, centrifugated (14000 rpm) for 5 min, and 50 μL supernatant was taken, mixed with equal volume of water, and analysised after vortex mixing. The linear range of A1 is: 0.1-300 ng/mL for oral administration and 1-3000 ng/mL for intravenous injection.
as §1, with “A55” for “A1”, “0.3-3000” for “1-3000”

Rat pharmacokinetics [4] = experiment: Rat pharmacokinetics; parameters: AUC(0-t) / AUC(0-inf): concentration or dose not given beside the values; conditions: in vivo, ip, i.p; for AUC(0-inf): read-out: AUCINF—obs; for MRT inf: read-out: MRTINF—obs
[5] = HEK293 cells expressing α1A-AR, agonist phenylephrine 30 nM, calcium fluorescence, read-out: α1A-AR/IC50
[6] = abdominal (intraperitoneal) 30 mg/kg once a day for three weeks
[7] = oral (intragastric) 30 mg/kg once a day for three weeks

IC50 [1, 5]: > 100 µM
Compound: COc1ccc2[nH]c3c(c2c1)CC1c2cc(OC)c(OCc4ccccc4)cc2CCN1C3c1ccc(F)cc1 (stereo not shown) [Example B55, 3-(benzyloxy)-8-(4-fluorophenyl)-2,12-dimethoxy-5,6,8,9,14,14a-hexahydroindole[3′,2′:4,5]pyridine[2,1-a]isoquinoline]
activity at 5 µM (HepG2 cells): 125%

IC50 [1, 5]: > 100 µM
Compound: COc1ccc2[nH]c3c(c2c1)CC1c2cc(OCc4ccc(F)cc4)c(OC)cc2CCN1C3c1ccc(F)cc1 (stereo not shown) [Example B5, 2-((4-fluorobenzyl)oxo)-8-(4-fluorophenyl)-3,12-dimethoxy-5,6,8,9,14,14a-hexahydroindole[3′,2′:4,5]pyridine[2,1-a]isoquinoline]
CHOL [2, 6]: 14.92 mmol/L
HDL-C [2, 6]: 2.90 mmol/L
LDL-C [2, 6]: 7.89 mmol/L
TG [2, 6]: 16.14 mmol/L
CHOL [2, 7]: 14.79 mmol/L
HDL-C [2, 7]: 3.99 mmol/L
LDL-C [2, 7]: 7.66 mmol/L
TG [2, 7]: 11.94 mmol/L
contents of cholesterol (CHOL), triglyceride (TG) and low density lipoprotein (LDL-C) in the blood [2]: significantly reduced
activity at 5 µM (HepG2 cells): 134%

IC50 [1, 5]: 4.53 µM
Compound: COc1ccc2c(c1)c1c(n2CO)CN2CCc3cc(OCc4cccc(F)c4)c(OC)cc3C2C1 (stereo not shown) [Example A61, (3-((3-fluorobenzyl)oxy)-2,12-dimethoxy-5,6,14,14a-tetrahydroindolo[3′,2′:4,5]pyridine[2,1-a]isoquinoline-9(8H)-yl)methanol]
TC ([2]; Dose 30, oral): 37.11 ± 11.19 mmol/L
TC ([2]; Dose 100, oral): 22.57 ± 6.37 mmol/L
activity at 5 µM (HepG2 cells): 165%

IC50 [1, 5]: 57.7 µM
Compound: COc1ccc2c(c1)c1c(n2CO)CN2CCc3cc(OCc4ccccc4F)c(OC)cc3C2C1 (stereo not shown) [Example A63, (3-((2-fluorobenzyl)oxy)-2,12-dimethoxy-5,6,14,14a-tetrahydroindolo[3′,2′:4,5]pyridine[2,1-a]isoquinoline-9(8H)-yl)methanol]
activity at 5 µM (HepG2 cells): 138%

IC50 [1, 5]: > 100 µM
Compound: COc1ccc2c(c1)c1c(n2CO)CN2CCc3cc(OCc4ccc(C)cc4)c(OC)cc3C2C1 (stereo not shown) [Example A69, (2,12-Dimethoxy-3-((4-methylbenzyl)oxy)-5,6,14,14a-tetrahydroindolo[3′,2′:4,5]pyridine[2,1-a]isoquinoline-9(8H)-yl)methanol]
activity at 5 µM (HepG2 cells): 140%

half-life (Rat pharmacokinetics [3]; in vivo, ip, i.p): 18.5 h
AUC(0-t) (Rat pharmacokinetics [3]; in vivo, po, i.g): 3.96 µg·h/mL
Cmax (Rat pharmacokinetics [3]; in vivo, po, i.g): 297 ng/mL
Tmax (Rat pharmacokinetics [3]; in vivo, po, i.g): 4 h
bioavailability (Rat pharmacokinetics [3]; in vivo, po, i.g): 57.2%
half-life (Rat pharmacokinetics [3]; in vivo, po, i.g): 6.53 h
AUC(0-inf) (Rat pharmacokinetics [3]; in vivo, po, i.g): 4.34 µg·h/mL
MRT inf (Rat pharmacokinetics [3]; in vivo, po, i.g): 7.74 h
AUC(0-t) (Rat pharmacokinetics [4]): 3.47 µg·h/mL
AUC(0-inf) (Rat pharmacokinetics [4]): 9.36 µg·h/mL
MRT inf (Rat pharmacokinetics [4]): 15.3 h
Compound: COc1ccc2[nH]c3c(c2c1)CC1c2cc(OCc4ccc(C(F)(F)F)cc4)c(OC)cc2CCN1C3 (stereo not shown) [Example C3, 3,12-dimethoxy-2-((4-(trifluoromethyl)benzyl)oxy)-5,6,8,9,14,14a-hexahydroindolo[3′,2′:4,5]pyridine[2,1-a]isoquinoline]
TC ([2]; Dose 30, oral): 25.08 ± 16.98 mmol/L
TC ([2]; Dose 100, oral): 21.17 ± 3.89 mmol/L

IC50 [1, 5]: 6.58 µM
IC50 ([1]; statement in text on Table 2, read-out: antagonistic activity to α1A-AR): < 10 µM
Compound: COc1ccc2[nH]c3c(c2c1)CC1c2cc(OC)c(OCc4ccc(F)cc4)cc2CCN1C3 (stereo not shown) [Example C49, 3-((4-Fluorobenzyl)oxo)-2,12-dimethoxy-5,6,8,9,14,14a-hexahydroindole[3′,2′:4,5]pyridine[2,1-a]isoquinoline]
activity at 5 µM (HepG2 cells): 194%

AUC(0-t) (Rat pharmacokinetics [3]; plasma, iv): 2.72 µg·h/mL
Cmax (Rat pharmacokinetics [3]; plasma, iv): 2740 ng/mL
Tmax (Rat pharmacokinetics [3]; plasma, iv): 0.083 h
half-life (Rat pharmacokinetics [3]; plasma, iv): 1.88 h
AUC(0-inf) (Rat pharmacokinetics [3]; plasma, iv): 2.73 µg·h/mL
clearance (Rat pharmacokinetics [3]; plasma, iv, read-out: CL—obs (converted)): 61 mL/min/kg
MRT inf (Rat pharmacokinetics [3]; plasma, iv): 1.7 h
Vd (Rat pharmacokinetics [3]; plasma, iv, read-out: Vss—obs): 6.41 L/kg
AUC(0-t) (Rat pharmacokinetics [3]; plasma, po): 0.334 µg·h/mL
Cmax (Rat pharmacokinetics [3]; plasma, po): 62 ng/mL
Tmax (Rat pharmacokinetics [3]; plasma, po): 4 h
bioavailability (Rat pharmacokinetics [3]; plasma, po): 6.2%
half-life (Rat pharmacokinetics [3]; plasma, po): 0.71 h
AUC(0-inf) (Rat pharmacokinetics [3]; plasma, po): 0.335 µg·h/mL
MRT inf (Rat pharmacokinetics [3]; plasma, po): 4.8 h
Compound: COc1ccc2c(c1)c1c(n2CO)CN2CCc3cc(OCc4ccccc4)c(OC)cc3C2C1 (stereo not shown) [Example A55, (3-(Benzyloxy)-2,12-dimethoxy-5,6,14,14a-tetrahydroindolo[3′,2′:4,5]pyridine[2,1-a]isoquinoline-9(8H)-yl)methanol]
CHOL [2, 6]: 17.86 mmol/L
HDL-C [2, 6]: 2.98 mmol/L
LDL-C [2, 6]: 9.39 mmol/L
TG [2, 6]: 19.77 mmol/L
CHOL [2, 7]: 11.81 mmol/L
HDL-C [2, 7]: 3.88 mmol/L
LDL-C [2, 7]: 5.56 mmol/L
TG [2, 7]: 6.74 mmol/L
contents of cholesterol (CHOL), triglyceride (TG) and low density lipoprotein (LDL-C) in the blood [2]: significantly reduced
activity at 5 µM (HepG2 cells): 194%

IC50 [1, 5]: 17.5 µM
Compound: COc1ccc2[nH]c3c(c2c1)CC1c2cc(OC)c(OCc4ccccc4F)cc2CCN1C3 (stereo not shown) [Example C53, 3-((2-Fluorobenzyl)oxo)-2,12-dimethoxy-5,6,8,9,14,14a-hexahydroindole[3′,2′:4,5]pyridine[2,1-a]isoquinoline]
activity at 5 µM (HepG2 cells): 112%

IC50 [1, 5]: > 100 µM
Compound: COc1ccc2[nH]c3c(c2c1)CC1c2cc(OC)c(OCc4ccc(C)cc4)cc2CCN1C3 (stereo not shown) [Example C59]
activity at 5 µM (HepG2 cells): 147%

Cmax (Rat pharmacokinetics [3]; in vivo, ip, i.p): 276 ng/mL
Tmax (Rat pharmacokinetics [3]; in vivo, ip, i.p): 24 h
half-life (Rat pharmacokinetics [3]; in vivo, ip, i.p): 51.2 h
AUC(0-t) (Rat pharmacokinetics [3]; in vivo, po, i.g): 9.25 µg·h/mL
Cmax (Rat pharmacokinetics [3]; in vivo, po, i.g): 251 ng/mL
Tmax (Rat pharmacokinetics [3]; in vivo, po, i.g): 4 h
bioavailability (Rat pharmacokinetics [3]; in vivo, po, i.g): 31%
half-life (Rat pharmacokinetics [3]; in vivo, po, i.g): 38.2 h
AUC(0-inf) (Rat pharmacokinetics [3]; in vivo, po, i.g): 564 µg·h/mL
MRT inf (Rat pharmacokinetics [3]; in vivo, po, i.g): 56.1 h
AUC(0-t) (Rat pharmacokinetics [4]): 14.9 µg·h/mL
AUC(0-inf) (Rat pharmacokinetics [4]): 1120 µg·h/mL
MRT inf (Rat pharmacokinetics [4]): 66.4 h
IC50 [1, 5]: > 100 µM
Compound: COc1ccc2[nH]c3c(c2c1)CC1c2cc(OC)c(OCc4ccc(C(F)(F)F)cc4)cc2CCN1C3 (stereo not shown) [Example C47, 2,12-dimethoxy-3-((4-(trifluoromethyl)benzyl)oxy)-5,6,8,9,14,14a-hexahydroindolo[3′,2′:4,5]pyridine[2,1-a]isoquinoline]
TC ([2]; Dose 30, oral): 19.73 ± 6.44 mmol/L
activity at 5 µM (HepG2 cells): 150%
